Measured values taken from patent US8586551B2, “18-membered macrocycles and analogs thereof” (Optimer Pharmaceuticals, Inc., priority 2005, dated 2013).
Converted amounts (≈) assume the structure as drawn.

How the values were obtained:
[1] = system: C. difficile clinical isolates; test: MIC via agar dilution versus 110 clinical isolates of C. difficile; format: cell-based
Clostridium bifermentans = test: MIC against intestinal bacteria: Clostridium bifermentans; format: cell-based; conditions: Clostridium bifermentans (9)
[2] = system: Miscellaneous gram-positive non-spore-forming rods; test: MIC against anaerobes: miscellaneous gram-positive non-spore-forming rods; format: cell-based; conditions: Miscellaneous gram-positive non-spore-forming rods (20)
[3] = system: Other Streptococcus species; test: MIC against intestinal bacteria: other Streptococcus species; format: cell-based; conditions: Other Streptococcus species (9)
Description: The in vitro activity of OPT-80 against intestinal bacteria was evaluated. The experimental procedure for which is outlined in Antimicrobial Agents and Chemotherapy, 2004, 48: 4898-4902, which is hereby incorporated by reference in its entirety.
Antimicrobial concentration ranges were selected to encompass or surpass the levels that would be achieved in the gut (to the extent that this information is available), subject to the limitations of solubility of the drugs in the testing medium. The range of concentration of OPT-80 used during testing was 0.03 μg/ml to 1024 μg/ml.
For analysis, the bacteria tested were generally placed into genus, species, or other groups with at least 10 isolates. The ranges and the MICs at which 50 and 90% of isolates were inhibited were determined except for organisms with fewer than 10 strains tested, for which only the ranges are reported (Table 8).

[4] = system: Prevotella/Porphyromonas species; test: MIC against anaerobes: Prevotella/Porphyromonas; format: cell-based; conditions: Prevotella/Porphyromonas species (42)
Description: (§1) The in vitro activity of OPT-80 was determined against 350 anaerobes. The experimental procedure for which is outlined in Antimicrobial Agents and Chemotherapy, 2004, 48: 4430-4434, which is hereby incorporated by reference in its entirety.
(§2) All organisms, including the 21 C. difficile strains, were separate isolates and not clonally related. All quality-control gram-negative and -positive strains recommended by NCCLS were included with each run: in every case, results (where available) were in range.

[5] = system: Fusobacterium species, miscellaneous; test: MIC against anaerobes: Fusobacterium species, miscellaneous; format: cell-based; conditions: miscellaneous (14)
Description: as §1, §2

E. faecium = test: MIC against other microorganisms: E. faecium
Clostridium bolteae = test: MIC against intestinal bacteria: Clostridium bolteae; format: cell-based; conditions: Clostridium bolteae (7)
[6] = system: Peptostreptococcus prevotii; test: MIC against anaerobes: Peptostreptococcus prevotii; format: cell-based; conditions: Peptostreptococcus prevotii (3)
Micromonas micros = test: MIC against anaerobes: Micromonas micros; format: cell-based; conditions: Micromonas micros (14)
[7] = system: All anaerobic gram-positive species; test: MIC against intestinal bacteria: all anaerobic gram-positive species; format: cell-based
S. aureus = test: MIC against other microorganisms: S. aureus
C. difficile = test: MIC versus C. difficile strains; conditions: Clostridioides difficile
453 bacterial isolates = test: MIC against intestinal bacteria: total for all strains; format: cell-based

`CCc1c(Cl)c(O)c(Cl)c(O)c1C(=O)O[C@H]1[C@H](O)[C@H](OC)[C@H](OCC2=CC=CC[C@H](O)C(C)=C[C@H](CC)[C@@H](O[C@@H]3OC(C)(C)[C@@H](OC(=O)C(C)C)[C@H](O)[C@@H]3O)C(C)=CC(C)=CC[C@@H]([C@@H](C)O)OC2=O)O[C@@H]1C` [R-Tiacumicin B, 3-[[[6-Deoxy-4-O-(3,5-dichloro-2-ethyl-4,6-dihydroxybenzoyl)-2-O-methyl-β-D-mannopyranosyl]oxy]-methyl]-12(R)-[[6-deoxy-5-C-methyl-4-O-(2-methyl-1-oxopropyl)-β-D-lyxo-hexopyranosyl]oxy]-11(S)-ethyl-8(S)-hydroxy-18(S)-(1(R)-hydroxyethyl)-9,13,15-trimethyloxacyclooctadeca-3,5,9,13,15-pentaene-2-one] was tested, and the MIC ([1]; isolate 100 6353) was 0.125 µg/mL (≈ 0.118 µM), the MIC ([1]; isolate A1 1535) was 0.125 µg/mL (≈ 0.118 µM) and the MIC ([1]; isolate AF1 1808) was 0.125 µg/mL (≈ 0.118 µM). It also gave an MIC ([1]; isolate AG1 3044) of 0.125 µg/mL (≈ 0.118 µM), an MIC ([1]; isolate AH1 3430) of 0.125 µg/mL (≈ 0.118 µM) and an MIC ([1]; isolate AN1 464) of 0.125 µg/mL (≈ 0.118 µM). It also gave an MIC ([1]; isolate AO1 287) of 0.125 µg/mL (≈ 0.118 µM), an MIC ([1]; isolate AS1 4099) of 0.125 µg/mL (≈ 0.118 µM) and an MIC ([1]; isolate AT1 1216) of 0.125 µg/mL (≈ 0.118 µM). The MIC ([1]; isolate AW1 4501) was 0.125 µg/mL (≈ 0.118 µM), the MIC ([1]; isolate BE1 4307) was 0.125 µg/mL (≈ 0.118 µM) and the MIC ([1]; isolate BI1 1675) was 0.125 µg/mL (≈ 0.118 µM). For the same compound, the MIC ([1]; isolate BK1 4291) was 0.125 µg/mL (≈ 0.118 µM), the MIC ([1]; isolate BL1 716) was 0.125 µg/mL (≈ 0.118 µM) and the MIC ([1]; isolate BN1 1322) was 0.125 µg/mL (≈ 0.118 µM). For the same compound, the MIC ([1]; isolate BW1 3130) was 0.125 µg/mL (≈ 0.118 µM), the MIC ([1]; isolate BX1 4271) was 0.125 µg/mL (≈ 0.118 µM) and the MIC ([1]; isolate CF1 5922) was 0.125 µg/mL (≈ 0.118 µM). The MIC ([1]; isolate CG1 1566) was 0.125 µg/mL (≈ 0.118 µM), the MIC ([1]; isolate CJ1 893) was 0.125 µg/mL (≈ 0.118 µM) and the MIC ([1]; isolate CP1 5491) was 0.125 µg/mL (≈ 0.118 µM). The MIC ([1]; isolate F1 1015) was 0.125 µg/mL (≈ 0.118 µM), the MIC ([1]; isolate G1 1077) was 0.125 µg/mL (≈ 0.118 µM) and the MIC ([1]; isolate I1 1389) was 0.125 µg/mL (≈ 0.118 µM). For the same compound, the MIC ([1]; isolate K1 4305) was 0.125 µg/mL (≈ 0.118 µM), the MIC ([1]; isolate K14 5780) was 0.125 µg/mL (≈ 0.118 µM) and the MIC ([1]; isolate L1 1423) was 0.125 µg/mL (≈ 0.118 µM). The MIC ([1]; isolate N1 471) was 0.125 µg/mL (≈ 0.118 µM), the MIC ([1]; isolate R1 397) was 0.125 µg/mL (≈ 0.118 µM) and the MIC ([1]; isolate V1 1521) was 0.125 µg/mL (≈ 0.118 µM). It also gave an MIC ([1]; isolate W1 3931) of 0.125 µg/mL (≈ 0.118 µM), an MIC ([1]; isolate X1 1890) of 0.125 µg/mL (≈ 0.118 µM) and an MIC range (Clostridium bifermentans) of 0.06 µg/mL (≈ 0.0567 µM). It also gave an MIC50 [2] of less than 0.125 µg/mL, an MIC90 [2] of 16 µg/mL (≈ 15.1 µM) and an MIC range [2] of less than 0.016 to 16 µg/mL. It also gave an MIC range [3] of 16 to 128 µg/mL, an MIC50 [4] greater than 128 µg/mL and an MIC90 [4] greater than 128 µg/mL. The MIC50 [5] was greater than 128 µg/mL, the MIC90 [5] was greater than 128 µg/mL and the MIC (E. faecium; Enterococcus faecium) was 1 µg/mL (≈ 0.945 µM). The MIC (E. faecium; Strain ID # 8, E. faecium Vanc. resistant) was 1 µg/mL (≈ 0.945 µM), the MIC range (Clostridium bolteae) was 1 to 64 µg/mL and the MIC range [6] was 0.25 to 1.0 µg/mL. The MIC range (Micromonas micros) was less than 0.016 to 0.06 µg/mL, the MIC50 (Micromonas micros; Parvimonas micra) was 0.03 µg/mL (≈ 0.0284 µM) and the MIC90 (Micromonas micros; Parvimonas micra) was 0.06 µg/mL (≈ 0.0567 µM). For the same compound, the MIC50 [7] was 0.12 µg/mL (≈ 0.113 µM), the MIC90 ([7]; All anaerobic gram-positive species (219)) was 64 µg/mL (≈ 60.5 µM) and the MIC (S. aureus; Staphylococcus aureus, ATCC29213) was 4 µg/mL (≈ 3.78 µM). For the same compound, the MIC (S. aureus; Staphylococcus aureus, MRSA) was 4 µg/mL (≈ 3.78 µM), the MIC (S. aureus; Strain ID # 3, S. aureus, (MRSA)) was 4 µg/mL (≈ 3.78 µM) and the MIC (C. difficile) was 0.125 µg/mL (≈ 0.118 µM). It also gave an MIC (C. difficile; ATCC9689) of 0.03 µg/mL (≈ 0.0284 µM), an MIC (C. difficile; ATCC17857) of 0.03 µg/mL (≈ 0.0284 µM) and an MIC (C. difficile; ATCC43255) of 0.125 µg/mL (≈ 0.118 µM). The MIC90 (453 bacterial isolates) was 1020 µg/mL (≈ 968 µM) and the MIC50 (453 bacterial isolates; Total for all strains (453)) was 8 µg/mL (≈ 7.56 µM).
